Measurements published in patent US10188629B2, “Prodrug of green tea epigallocatechin-3-gallate (pro-EGCG) for use in the treatment of endometriosis” (The Hong Kong Polytechnic University, priority 2012, dated 2019).
Values belong to the molecule of their own block, whether it stands above or below them.

How the values were obtained:
Type in all cases: in vivo, mice
[1] = Oxygen radical absorbance capacity (ORAC) in plasma and lesions; settings: for ORAC in endometriotic lesions compared between treatment groups / ORAC in endometriotic lesions compared to saline group: lesions after intervention; for ORAC in plasma compared between treatment groups / ORAC in plasma compared to saline group: plasma during intervention
Source text: Pharmacokinetics of EGCG and pro-EGCG in the animals were studied by measuring the corresponding EGCG and pro-EGCG concentrations (EGCG in the EGCG group, pro-EGCG in the pro-EGCG group) in plasma during the intervention and also in lesions at the end of intervention. EGCG and pro-EGCG were quantified by analytical methods as previously described (Lam W H, et al. Bioorg Med Chem. 2004; 510:69-93; Chu K O, et al. J Chromat B 2004; 810:187-95; Chu K O, et al. Anal Chim Acta 2004; 510:69-76). Anti-oxidative and anti-angiogenesis capacities of the samples were also studied by measuring oxygen radical absorbance capacity (ORAC) using a modified phycoerythrin fluorescence decay assay as previously described (Wang C C, et al. Clin Chem 2004; 50:952-4), and vascular endothelial growth factor (VEGF) concentrations were measured using a commercial ELISA kit (Uscn Life Science Inc., TX) according to the manufacturer's manual. Blood samples (n=8 per group) were collected from the tail vein once per week, and plasma was prepared by immediate centrifugation. Implants without subcutaneous and muscle layers (n=4 per group) were removed from the abdominal wall, and the endometriotic lesions were frozen. All of the samples were kept in −80° C. prior to analysis.

[2] = test system: apoptotic cells in the endometriotic lesions; test: Apoptosis in endometriotic lesions by Cellvizio YO-PRO-1 imaging and TUNEL staining; settings: after 4 weeks
Description: (§1) At the end of intervention, functional angiogenesis of the endometriotic lesions (n=8 per group) was monitored by measuring the flow of fluorescence dye in the new microvessels developed in the implants using a Cellvizio® LAB LSU-488 system with a ProFlex Microprobe S1500 (Mauna Kea Technologies, Paris) as previously described (Xu H, et al. Fertil Steril 2011; 96:1021-8.). A total of 10 mg/ml of FITC-Dextran was injected intravenously into each mouse prior to imaging. Total vessel length (μm) and area (μm^2) and functional capillary length (μm^−1) and area density were measured using Cellvizio® LAB Vessel Detection software, and averaged from 4 perpendicular regions of the lesions in replicates. At the same time, apoptotic cells in the lesions were captured by Cellvizio-LAB 488 with a ProFlex MiniO/100 microprobe using Cellvizio® LAB I/C Viewer software (Mauna Kea Technologies). A total of 10 μl of 10 μM YO-PRO®-1 iodide in DSMO was injected into the lesion area.
The total number of apoptotic cells was counted and averaged from the 4 perpendicular regions of the lesions in replicates as described above. Both IVIS and Cellvizio imaging procedures were performed under general anesthesia with isoflurane (Baxter, Ill.), and the mice were observed until fully recovered.
TUNEL labeling for in situ apoptotic cells was performed using an ApopTag Peroxidase In Situ Apoptosis Detection Kit (Temecula, Calif.) according to the manufacturer's instructions. The total numbers of TUNEL-positive stained cells were counted. The mean numbers of apoptotic cells were calculated from 5 separated sections from each animal within the treatment group and are presented as numbers per lesion as above. […] Each section was evaluated by both examiners, who were blinded to the experimental groups and results.

[3] = test system: ovarian follicles, endometrial glands, ovarian and endometrial stroma microvessels; test: Reproductive effects on eutopic endometrium and ovaries (H&E, CD34 immunostaining); settings: H&E staining after 4-week intervention
Description: Reproductive effects of EGCG and pro-EGCG on the endometrium and ovaries of each animal were also examined. After the 4-week intervention, the uterine horns and ovaries (n=8 per group) were removed and fixed for histological examination and angiogenesis immunostaining as described above. Endometrial glands, ovarian follicles and vascularization in endometrial and ovarian stroma were assessed.

[4] = test system: microvessels in the endometriotic lesions; test: Angiogenesis of endometriotic lesions by Cellvizio, microCT and CD31/αSMA immunostaining; settings: after 4 weeks; for functional capillary length, density and area in the lesions compared to saline group / total vessel area in the lesions compared to saline group / total vessel length in the lesions compared to saline group / lesion neovascularization: Cellvizio; for functional capillary length, density and area in the lesions compared to saline group / total vessel area in the lesions compared to saline group / total vessel length in the lesions compared to saline group: FITC-Dextran; for lesion neovascularization / vessel volume and density in the lesions compared to saline group: microCT; for lesion neovascularization: CD31 and αSMA staining; for CD31-positively and αSMA-negatively stained new microvessel numbers compared to saline group / CD31-positively and αSMA-positively stained old microvessel numbers compared to saline group: immunostaining; for vessel volume and density in the lesions compared to saline group: Microfil
Description: as §1
After live animal imaging, structural angiogenesis in the endometriotic lesions (n=4 per group) was further examined by detecting the Microfil in the new microvessels developed in the implants using a VivaCT 40 μCT system (Scanco Medical, Switzerland) as previously described (Sun M H, et al. J Orthop Res. 2012; 30:137-43.). The mice were sacrificed by cervical dislocation and where immediately perfused with 4% paraformaldehyde and Microfil MV-120 Blue. Three-dimensional microvessel architecture was constructed, and absolute and relative Microfil-filled microvessel volumes were determined using the built-in software.
Paraffin sections (n=4 per group) were prepared for standard hematoxylin and eosin (H&E) staining, angiogenesis immunostaining and TUNEL staining as previously described (Xu H, et al. Hum Reprod 2009; 24:608-18.). Immunohistochemistry staining of in situ angiogenesis was performed by the immunoperoxidase method using a MACH 3 HRP Polymer Kit (Biocare Medical, Concord), and counterstained using methyl green or blue solution.
Antibodies against mouse CD31 and alpha-smooth muscle actin (αSMA) (Abcam Inc., MA) were used to double fluorescence stain the microvessels developed in the endometriotic lesions, and CD34 (Abeam Inc.) was used to stain the microvessels in the ovaries and uterus. The samples without primary antibodies served as negative controls. The total number of positively stained new and old microvessels in the lesions was counted, respectively. The mean microvessel numbers and sizes were calculated from 5 separated sections from each animal within the treatment group and are presented as numbers per lesion and μm^2 per lesion, respectively.

Compound: O=C(O[C@@H]1Cc2c(O)cc(O)cc2O[C@@H]1c1cc(O)c(O)c(O)c1)c1cc(O)c(O)c(O)c1 [EGCG, (−)-epigallocatechin-3-gallate]
ORAC in endometriotic lesions compared between treatment groups [1]: not significantly different from the vitamin E group
ORAC in endometriotic lesions compared to saline group [1]: significantly increased
ORAC in plasma compared between treatment groups [1]: not significantly different from the vitamin E group
ORAC in plasma compared to saline group [1]: significantly increased
total apoptotic cell numbers in the lesions compared to saline group [2]: significantly increased
effects on ovarian follicles [3]: not affected
effects on uterine endometrial glands [3]: not affected
functional capillary length, density and area in the lesions compared to saline group [4]: significantly inhibited
total vessel area in the lesions compared to saline group [4]: significantly inhibited
total vessel length in the lesions compared to saline group [4]: significantly inhibited
lesion neovascularization [4]: poorly developed
CD31-positively and αSMA-negatively stained new microvessel numbers compared to saline group [4]: significantly inhibited
CD31-positively and αSMA-positively stained old microvessel numbers compared to saline group [4]: significantly inhibited
vessel volume and density in the lesions compared to saline group [4]: significantly inhibited

effects on ovarian follicles [3]: not affected
effects on uterine endometrial glands [3]: not affected
Compound: CC(=O)Oc1cc(OC(C)=O)c2c(c1)O[C@H](c1cc(OC(C)=O)c(OC(C)=O)c(OC(C)=O)c1)[C@H](OC(=O)c1cc(OC(C)=O)c(OC(C)=O)c(OC(C)=O)c1)C2 [pro-EGCG, (−)-EGCG octaacetate]
ORAC in endometriotic lesions compared between treatment groups [1]: significantly higher than in the EGCG and vitamin E groups
ORAC in endometriotic lesions compared to saline group [1]: significantly increased
ORAC in plasma compared between treatment groups [1]: significantly higher than in the EGCG and vitamin E groups
ORAC in plasma compared to saline group [1]: significantly increased
apoptotic cell numbers in the lesions compared with EGCG group [2]: significantly higher than the number in the EGCG group
total apoptotic cell numbers in the lesions compared to saline group [2]: significantly increased
functional capillary length, density and area in the lesions compared to saline group [4]: significantly inhibited
total vessel area in the lesions compared to saline group [4]: significantly inhibited
total vessel length in the lesions compared to saline group [4]: significantly inhibited
lesion neovascularization [4]: poorly developed
all of the microvessel parameters compared with EGCG group ([4]; 50 mg/kg i.p.): significantly lower than those in the EGCG group
CD31-positively and αSMA-negatively stained new microvessel numbers compared to saline group [4]: significantly inhibited
CD31-positively and αSMA-positively stained old microvessel numbers compared to saline group [4]: significantly inhibited
vessel volume and density in the lesions compared to saline group [4]: significantly inhibited
